Measurements as given in patent publication US20160045482A1, “UREIDO-PYRAZOLE DERIVATIVES” (Respivert Limited, priority 2010, published 2016).
Entries after “also recorded” stand apart in the source; their conditions may differ. Where two headings read alike, the source gives them in different places.

Key:
[1] = test system: HRV16; experiment: Assessment of HRV16 induced CPE in MRC5; format: cell-based, human rhinovirus 16; conditions: Rhinovirus A
Experimental: The supernatants were aspirated and fresh media was added and the preparations were then incubated for 4 days. Where appropriate, cells were pre-incubated with the test compound or DMSO for 2 hr, and the compounds and DMSO added again after washout of the virus. Supernatants were aspirated and incubated with methylene blue solution (2% formaldehyde, 10% methanol and 0.175% Methylene Blue) for 2 hr at RT. After washing, 1% SDS was added to each well, and plates were shaken lightly for 1-2 hr prior to reading the absorbance at 660 nm. The percentage inhibition for each well was calculated. The IC50 value was calculated from the concentration-response curve generated from the serial dilutions of the test compound.

[2] = test system: IL-8; experiment: IL-8 release activated by human rhinovirus in BEAS2B cells; format: cell-based; conditions: for IL-8 production in response to inoculation using HRV-16: epithelial cells
Experimental: BEAS2B cells were infected with rhinovirus at an MOI of 5 and incubated for 2 hr at 33° C. with gentle shaking to enhance adsorption. Test compounds were added 2 hr before HRV infection and 2 hr after infection when residual extracellular HRV was washed out. The cells were then washed with PBS, fresh media was added and the cells were incubated for a further 72 hr. The supernatant was collected for assay of IL-8 concentrations using the Duoset ELISA development kit (R&D Systems, Minneapolis, Minn.).

[3] = test system: ICAM-1; experiment: ICAM1 expression activated by human rhinovirus in BEAS2B cells (cell-based ELISA); conditions: for ICAM-1 expression induced by HRV16 inoculation (in words): 2 hr infection
Experimental: BEAS2B cells were infected with rhinovirus at an MOI of 5 and incubated for 2 hr at 33° C. with gentle shaking to enhance adsorption. Test compounds were added 2 hr before HRV infection and 2 hr after infection when residual extracellular HRV was washed out. The cells were then washed with PBS, fresh media was added and the cells were incubated for a further 72 hr. The supernatant was collected for assay of IL-8 concentrations using the Duoset ELISA development kit (R&D Systems, Minneapolis, Minn.). […] After appropriate incubation, cells were fixed with 4% formaldehyde in PBS. After quenching endogenous peroxidase by adding 0.1% sodium azide and 1% hydrogen peroxide, wells were washed with buffer (0.05% Tween in PBS: PBS-Tween). After incubation with the blocking solution (5% milk in PBS-Tween for 1 hr), cells were incubated with anti-human ICAM-1 antibody in 5% BSA PBS-Tween (1:500) overnight. Wells were then washed with PBS-Tween and incubated with the secondary antibody (HRP-conjugated anti-rabbit IgG, Dako Ltd.).

[4] = test system: HRV16; experiment: HRV-16 infection, assessment of virus load (TCID50) in MRC5 cells; format: cell-based, human rhinovirus 16; conditions: HRV16 0.1 MOI, 3 days
Experimental: Human rhinovirus RV16 (HRV16) was obtained from the American Type Culture Collection (Manassas, Va.). Viral stocks were generated by infecting Hela cells with HRV until 80% of the cells were cytopathic. MRC5 cells (human lung fibroblast, ATCC) were infected at 0.1 MOI (multiplicity of infection of 0.1) of HRV16 and incubated for 1 hr at 33° C. with gentle shaking to stimulate adsorption. The cells were then washed with PBS, fresh media (DMEM-5% FCS) was added and the cells were incubated for a further 72 hr. Supernatant (20 μL) was collected and 10-fold serial dilutions were prepared with DMEM containing 1% FCS. All titrations were performed by infecting confluent Hela cell monolayers with serially diluted supernatant (10^−1-10^−5) and then the cytopathic effect at each dilution 3 days after infection assessed by visual inspection. The cells were then stained with Crystal Violet for confirmation. The amount of virus required to infect 50% of Hela cells was calculated in each treatment as TCID50 (50% tissue culture infectious dose, U(unit)/20 μL). Compounds were added 2 hr before HRV16 infection and 1 hr after infection when non-infected HRV was washed out.

[5] = test system: NFκB; experiment: HRV-16 induced activation of NFκB in BEAS2B cells; format: cell-based, human; conditions: after 2 hr, at 10 MOI
Experimental: (§1) The cells were then collected by scraping on ice and nuclear extracts were prepared using a nuclear protein extraction kit (ActiveMotif, […], Belgium). NFκB activity and IRF3 activity were then measured using the TransAMTM NFκB (p65) ELISA kit or the TransAMTM IRF3 ELISA kit.

[6] = test system: IRF-3; experiment: HRV-16 induced activation of IRF-3 in BEAS2B cells; format: cell-based, human; conditions: after 2 hr, at 10 MOI
Experimental: as §1

[7] = test system: HRV16 mRNA; experiment: Transcripts of HRV16 by PCR in MRC5 cellular extract; format: cell-based, human rhinovirus 16; conditions: MRC5 cells, HRV16 0.1 MOI, 3 days
Experimental: (§2) The MRC5 cells infected with virus (as described above) were used for viral RNA or mRNA detection. Total RNA extraction and reverse transcription were performed using TaqMan®Fast Cells-to-CT™ Kit (Ambion Inc. Austin Tex.). The gene transcript level of HRV16 (PrimerDesign Ltd, Southampton, UK), IFN (Applied Biosystems, Warrington, UK) and GAPDH, as a house-keeping gene (PrimerDesign Ltd, Southampton, UK) were quantified by real-time PCR using commercially available primers on a StepOnePlus™ RT-PCR system (Applied Biosystems, Warrington, UK). Variations in cDNA concentrations between different samples were corrected using the housekeeping gene, whereby the GAPDH concentration in each cDNA sample was calculated, and the cDNA diluted to contain equal amounts of GAPDH. Standard curves for GAPDH were generated by performing a dilution series of the untreated control cDNA. The relative amount of gene transcript present after different treatments was calculated and normalized by dividing the calculated value for the gene of interest by that of the house-keeping gene value.

[8] = test system: HRV39; experiment: HRV-39 viral load in air-liquid interface cultured nasal epithelial cells; format: cell-based, human rhinovirus
Experimental: (§3) Primary nasal epithelial cells, cultured using an air-liquid interface, were purchased from Epithelix Sarl (Geneva, Switzerland). Fresh, warmed media (200 μL) containing either the test compound at the selected concentration or vehicle (DMSO; final concentration of 0.5%) was transferred to the apical chamber, and fresh, warmed media (700 μL) containing either the test compound at the selected concentration or vehicle (DMSO; final concentration of 0.5%) were transferred to the bottom chamber. After incubation for 2 hr, the media in the upper well was removed carefully. The following day, fresh, warmed media (200 μL) containing either the test compound at the selected concentration or vehicle (DMSO; final concentration of 0.5%) was transferred to the apical chamber again, and after incubation for 2 hr, the media was removed. On the third day, cells were treated again for 2 hr, and the media was removed. […] IL-8 concentrations were determined using a Duoset ELISA development kit (R&D Systems, Minneapolis, Minn.; FIG. 3B). […] The resultant cytopathic effects (CPE) were assessed by visual inspection 5 days after infection. The amount of virus required to infect 50% of Hela cells was calculated for each treatment and is reported as log[TCID50] […]

[9] = test system: IL-8; experiment: HRV39-induced IL-8 release in air-liquid interface cultured nasal epithelial cells; format: cell-based, human
Experimental: as §3

[10] = test system: interferon β; experiment: Interferon β induction (mRNA) by HRV16 in MRC-5 cells, PCR; format: cell-based, human
Experimental: as §2

[11] = test system: HRV1B; experiment: HRV1B titres in MRC-5 cells; format: cell-based, human rhinovirus; conditions: 0.1 or 10 MOI, 3 days, results not shown
[12] = test system: HRV39; experiment: HRV39 titres in MRC-5 cells; format: cell-based, human rhinovirus; conditions: 0.1 or 10 MOI, 3 days, results not shown
[13] = test system: HRV16; experiment: HRV-16 infection, assessment of virus load (TCID50) in MRC5 cells; format: cell-based, human rhinovirus 16; conditions: MRC5 cells, 0.1 MOI, total period of 84 hr
[14] = target: HCK (Homo sapiens, UniProt P08631); experiment: Kinase enzyme activity, FRET (Z-LYTE); format: biochemical; conditions: 15 μM ATP
Chain of HCK (P08631 whole entry): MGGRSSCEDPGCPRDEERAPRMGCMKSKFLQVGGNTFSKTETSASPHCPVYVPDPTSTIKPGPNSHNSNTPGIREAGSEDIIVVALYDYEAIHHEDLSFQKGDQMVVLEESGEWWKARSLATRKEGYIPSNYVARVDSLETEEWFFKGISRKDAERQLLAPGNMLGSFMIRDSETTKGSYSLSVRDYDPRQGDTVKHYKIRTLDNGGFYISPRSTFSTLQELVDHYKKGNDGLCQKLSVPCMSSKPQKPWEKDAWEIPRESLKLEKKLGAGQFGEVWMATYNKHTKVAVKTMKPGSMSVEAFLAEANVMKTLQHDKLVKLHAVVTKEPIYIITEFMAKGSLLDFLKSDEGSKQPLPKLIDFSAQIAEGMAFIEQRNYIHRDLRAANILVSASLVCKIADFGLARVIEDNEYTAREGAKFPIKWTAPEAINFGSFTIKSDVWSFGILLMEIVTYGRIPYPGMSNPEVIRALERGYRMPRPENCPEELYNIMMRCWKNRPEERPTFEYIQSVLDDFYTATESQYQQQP
Experimental: (§4) The enzyme inhibitory activity of test compounds was determined by fluorescence resonance energy transfer (FRET) using synthetic peptides labelled with both donor and acceptor fluorophores (Z-LYTE, Invitrogen). For p38 MAPK alpha (MAPK14: Invitrogen), enzyme activity was evaluated indirectly by determining the activation/phosphorylation of the down-stream molecule, MAPKAP-K2. The p38 MAPK a protein was mixed with the test compound for 2 hr at RT. MAPKAP-K2 (Invitrogen), the FRET peptide (2 μM), which is a phosphorylation target for MAPKAP-K2, and ATP (10 μM) were then added to the enzymes/compound mixture and incubated for 1 hr. Development reagent was added and the mixture incubated for 1 hr before detection by fluorescence completed the assay protocol. The enzymes HCK, c-SRC, and SYK were evaluated in a similar fashion. Each enzyme was incubated with the test compound for 2 hr at RT. […] After the development reagent was added the mixtures were incubated for 1 hr and the assay protocol was completed by detection of the fluorescence levels in a microplate reader.

[15] = target: T1, p38MAPKα (Homo sapiens, UniProt Q16539); experiment: Kinase enzyme activity, FRET (Z-LYTE); format: biochemical; conditions: 10 μM ATP, via MAPKAP-K2
T1 construct: purchased Invitrogen
T1 sequence (Q16539 whole entry): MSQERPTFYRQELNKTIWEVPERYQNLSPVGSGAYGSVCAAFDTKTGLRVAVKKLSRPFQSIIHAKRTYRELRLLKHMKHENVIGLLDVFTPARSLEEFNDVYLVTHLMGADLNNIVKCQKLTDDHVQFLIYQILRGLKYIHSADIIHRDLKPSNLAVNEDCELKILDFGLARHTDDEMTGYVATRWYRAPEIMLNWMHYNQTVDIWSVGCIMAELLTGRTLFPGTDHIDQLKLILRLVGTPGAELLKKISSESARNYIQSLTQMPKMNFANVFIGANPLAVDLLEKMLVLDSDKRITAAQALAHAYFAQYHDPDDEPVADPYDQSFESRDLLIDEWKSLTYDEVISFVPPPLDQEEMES
Experimental: as §4

[16] = target: SYK (Homo sapiens, UniProt P43405); experiment: Kinase enzyme activity, FRET (Z-LYTE); format: biochemical; conditions: 15 μM ATP
Experimental: as §4

Row | IC50 [14] [nM] | IC50 [15] [nM] | Structure (SMILES) | IC50 ([1]; 96 h, MRC5 cells, HRV16 MOI of 1, 4 days, read-out: HRV16-induced CPE IC50 Value) [nM] | IL-8 production in response to inoculation using HRV-16 [2] | ICAM-1 expression induced by HRV16 inoculation (in words) [3] | HRV-16 virus load (extracellular) [4] | NFκB activation (HRV-16 induced) [5] | IRF-3 activation (HRV-16 induced) [6] | HRV16 mRNA detected in cellular extracts [7] | HRV39 extracellular virus load [8] | IL-8 production in response to inoculation using HRV39 [9] | Interferon β induction by HRV16 [10] | HRV1B titres [11] | HRV39 titres [12] | Activity versus extracellular HRV16 load, delaying treatment for 24-36 hr [13] | Activity versus extracellular HRV16 load, initial treatment [13] | IC50 ([1]; HRV16, MRC5, 96 h, read-out: HRV16-induced CPE IC50 Value (nM)) [nM] | IC50 ([2]; Homo sapiens, BEAS-2B, BEAS2B cells, MOI of 5, 72 hr, read-out: HRV16-induced IL-8 IC50 Value) [nM] | IC50 ([3]; Homo sapiens, BEAS-2B, HRV16 inoculation (2 hr infection), read-out: HRV16-induced ICAM1 IC50 Value) [nM] | IC50 [16] [nM]
1 | – | – | COCC(=O)Nc1cc(Oc2ccc(NC(=O)Nc3cc(C(C)(C)C)nn3-c3ccc(C)cc3)c3ccccc23)ccn1 [Reference Compound 2, N-(4-(4-(3-(3-tert-Butyl-1-p-tolyl-1H-pyrazol-5-yl)ureido)naphthalen-1-yloxy)pyridin-2-yl)-2-methoxyacetamide] | 4.7 | marked inhibition | remarkably potent inhibitory effect | potent inhibitor; also recorded: Marked inhibition | inhibited; also recorded: Marked inhibition | enhanced; also recorded: Activation | potent inhibitor | potent inhibitor | marked inhibition | marked increases | potent inhibitor | potent inhibitor | more sustained | marked activity | – | – | – | –
2 | > 3310 | > 3310 | COc1ccc(-c2cc3nccn3c(Nc3ncccc3C(N)=O)n2)cc1OC [BAY 61-3606] | – | – | – | – | inhibited | tendency to inhibit | – | – | – | – | – | – | – | – | – | – | – | –
3 | – | – | COCC(=O)Nc1cc(COc2ccc(NC(=O)Nc3cc(C(C)(C)C)nn3-c3ccc(C)cc3)c3ccccc23)ccn1 [Reference Compound 1, N-[4-({4-[3-(3-tert-Butyl-1-p-tolyl-1H-pyrazol-5-yl)ureido]naphthalen-1-yloxy}methyl)pyridin-2-yl]-2-methoxyacetamide, reference compound] | – | marked inhibition | no effect | modest effect; also recorded: Modest inhibition | some evidence of inhibition; also recorded: Modest inhibition | without effect; also recorded: No effect | – | little effect | marked inhibition | – | little or no discernable effect | little or no discernable effect | marked decrease in activity | marked activity | 340 | 1 | > 1690 | > 17800
